PubChem BioAssay (NCI)
Several values for one entry are separate records, joined by “and”; a condition that tells them apart may be missing. Equal entries are not always repeated.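 Grown in 96-well plates, cells were treated for 48 hours with each compound at five concentrations. Insufficient inhibition: endpoint recorded as highest concentration tested. GI50 is the concentration that inhibits growth by half. TGI denotes the concentration required for complete inhibition of growth.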

Assays:
Test in all cases: inhibition of tumour cell growth, NCI panel, 48 h
HCT-116 colon = tested on: HCT-116 colon
HOP-62 NSCLC = tested on: HOP-62 NSCLC
HS 578T breast = tested on: HS 578T breast
NCI/ADR-RES ovarian = tested on: NCI/ADR-RES ovarian
OVCAR-5 ovarian = tested on: OVCAR-5 ovarian
SF-268 CNS = tested on: SF-268 CNS
SF-295 CNS = tested on: SF-295 CNS
U251 CNS = tested on: U251 CNS
UACC-257 melanoma = tested on: UACC-257 melanoma
UO-31 renal = tested on: UO-31 renal

Compound | TGI (HCT-116 colon) [µM] | TGI (HOP-62 NSCLC) | TGI (HS 578T breast) [µM] | TGI (NCI/ADR-RES ovarian) | TGI (OVCAR-5 ovarian) [µM] | TGI (SF-268 CNS) | TGI (SF-295 CNS) | TGI (U251 CNS) | TGI (UACC-257 melanoma) [µM] | TGI (UO-31 renal) [µM] | GI50 (HCT-116 colon) [µM] | GI50 (NCI/ADR-RES ovarian) | GI50 (UO-31 renal) [µM] | GI50 (HOP-62 NSCLC) [µM] | GI50 (HS 578T breast) [µM] | GI50 (OVCAR-5 ovarian) [µM] | GI50 (SF-268 CNS) [µM] | GI50 (SF-295 CNS) [µM] | GI50 (U251 CNS) [µM] | GI50 (UACC-257 melanoma) [µM]
CS(=O)(=O)c1ccc(/C=N/NC(N)=S)cc1 | > 100 | > 100 µM | > 100 | > 100 µM | > 100 | > 100 µM | > 100 µM | > 100 µM | > 100 | > 100 | – | – | – | – | – | – | – | – | – | –
CC1(C)CC23C4COC(=O)C2CCC1C3CC4=O (stereo not drawn) | 21.9 | 59.3 µM | – | 24.8 µM | 72.4 | 50.9 µM | 53.5 µM | 50.7 µM | 26.3 | 90.1 | – | – | – | – | – | – | – | – | – | –
CC[C@]1(O)C[C@H]2CN(CCc3c([nH]c4ccccc34)[C@@](C(=O)OC)(c3cc4c(cc3OC)N(C=O)[C@H]3[C@@](O)(C(=O)OC)[C@H](OC(C)=O)[C@]5(CC)C=CCN6CC[C@]43[C@@H]65)C2)C1 | – | 56.9 µM and 142 µM | – | 4.87 µM and 12.5 µM and 8.04 µM | – | 8.13 µM and 31.2 µM and 79.2 µM | 0.141 µM and 0.536 µM | 1.66 µM and 2.53 µM and 16.6 µM | – | – | 0.0011 | 1.18 µM and 0.536 µM and 1.95 µM | 0.476 | – | – | – | – | – | – | –
CCOc1ccc2nc(-c3ccc(O)cc3)sc2c1 | > 100 | – | – | > 100 µM | > 100 | 91.3 µM | 61.6 µM | > 100 µM | 64.5 | > 100 | – | – | – | – | – | – | – | – | – | –
C/C=C/[C@H]1O[C@@](O)([C@@H](C)[C@H](O)[C@H](C)[C@H]2OC(=O)/C(OC)=C/C(C)=C/[C@@H](C)[C@@H](O)[C@@H](CC)[C@@H](O)[C@H](C)C/C(C)=C/C=C/[C@@H]2OC)C[C@H](OC2CC(O)C(O)C(C)O2)[C@@H]1C (stereo partly drawn) | 4.15 | 2.7 µM | 17.3 | 17.8 µM | 15.1 | 25.6 µM | 10.4 µM | 11.4 µM | < 0.0075 | 0.29 | – | – | – | – | – | – | – | – | – | –
CCOC(=O)NC(Nc1ncccn1)(C(F)(F)F)C(F)(F)F | > 100 | > 100 µM | > 100 | – | > 100 | > 100 µM | – | > 100 µM | > 100 | > 100 | – | – | – | – | – | – | – | – | – | –
O=C(O)c1ccccc1NC(c1ccccc1)c1ccc2cccnc2c1O (stereo not drawn) | > 64.2 | > 100 µM | > 68.1 | > 49.3 µM | 58 | > 43.5 µM | > 100 µM | 21.8 µM | 43.9 | 23.8 | – | – | – | – | – | – | – | – | – | –
N/C(=N\N=C/c1ccccc1O)NO | 47.8 | > 60.8 µM | – | 44.2 µM | > 100 | 90.5 µM | > 34.4 µM | > 100 µM | > 100 | > 95.5 | – | – | – | – | – | – | – | – | – | –
O=C(Nc1cccc(-n2ccc3c(NC(=O)c4ccccc4)nccc32)c1)c1ccc(N2CCOCC2)c(C(F)(F)F)c1 | > 100 | > 94.7 µM | 98.6 | > 51.4 µM | > 100 | > 100 µM | 0.49 µM | > 100 µM | > 100 | 37.8 | 0.0371 | 0.0352 µM | 0.0537 | 0.0536 | 0.272 | 0.188 | 0.0625 | 0.0306 | 0.0474 | 2.36
O=C(O)c1cc2ccccc2c(N=Nc2ccccc2)c1O | > 100 | 32.5 µM | > 100 | 90.4 µM | > 100 | > 100 µM | 25.9 µM | 45.1 µM | 30.5 | > 100 | – | – | – | – | – | – | – | – | – | –
O=[N+]([O-])c1nc(-c2ccccn2)[nH]c1[N+](=O)[O-] | 49 | > 100 µM | – | – | > 100 | > 100 µM | > 100 µM | > 100 µM | > 100 | > 100 | – | – | – | – | – | – | – | – | – | –
O=C1OC[C@@H]2[C@@H](O)CCCCCN12 | > 100 | > 100 µM | > 100 | > 100 µM | > 100 | – | > 100 µM | > 100 µM | > 100 | > 100 | – | – | – | – | – | – | – | – | – | –
COc1cc2c(cc1OC)-c1cc3ccccc3c[n+]1CC2 | > 100 | > 100 µM | 94.7 | > 100 µM | > 100 | > 100 µM | > 100 µM | > 100 µM | > 100 | > 100 | – | – | – | – | – | – | – | – | – | –
CCS(=O)(=O)N1CCC(C(C)n2c(C)c(C(=O)NCc3c(OC)cc(C)[nH]c3=O)c3ccccc32)CC1 (stereo not drawn) | – | > 100 µM | > 100 | > 100 µM | > 100 | > 100 µM | > 100 µM | > 100 µM | > 100 | > 100 | – | > 100 µM | > 100 | > 100 | > 100 | > 100 | > 100 | > 100 | > 100 | > 100
O=C1OC(c2ccccc2)=N/C1=C\c1cccnc1 | – | > 100 µM | > 100 | > 100 µM | > 100 | > 100 µM | > 100 µM | > 100 µM | > 100 | > 100 | – | – | – | – | – | – | – | – | – | –
C/C(CC/C(C)=N/O)=N\O | > 100 | > 100 µM | > 100 | > 100 µM | > 100 | > 100 µM | > 100 µM | > 100 µM | > 100 | > 100 | – | – | – | – | – | – | – | – | – | –
Fc1ccc2[nH]cc(-c3nc(-c4c[nH]c5ncccc45)cs3)c2c1 | – | – | > 100 | – | > 100 | – | – | – | > 100 | > 100 | – | – | 0.478 | – | 3.15 | > 100 | – | – | – | > 100
COC1=C2CC(C)CC(OC)C(O)C(C)/C=C(\C)C(OC(N)=O)C(OC)/C=C\C=C(/C)C(=O)NC(=C(C=NC(C)(C)C)C1=O)C2=O (stereo not drawn) | 16.2 | 41 µM | – | 44.4 µM | 74.1 | 37.4 µM | 31.7 µM | 21.9 µM | 17.8 | 40.5 | – | – | – | – | – | – | – | – | – | –
